Test system: 967376-340-R-J2-PDC multicell spheroid viability
Experiment: Anticancer human tumor 967376-340-R-J2-PDC patient-derived colon adenocarcinoma cell line growth inhibition [PI3K]
Conditions: for IC50: curve of first compound; for viability, T/C: stronger effect = lower value
Text: Combinatorial screen of targeted agents with the PI3K inhibitors inavolisib, alpelisib, duvelisib, and copanlisib in multi-cell type tumor spheroids
A high-throughput screen of multi-cell type tumor spheroids was designed to identify active combinations of targeted small molecules and PI3K pathway inhibitors. Complex spheroids include a stromal component modeled by human endothelial cells (HUVEC) and fibroblasts modeled by human mesenchymal stem cells (MSCs). The concentration ranges selected for each drug and investigational agent were based upon clinically achievable concentrations if the clinical Cmax of the agent was known.
Compounds. The drugs and investigational agents: inavolisib (NSC800729), alpelisib (NSC765974), duvelisib (NSC772469), copanlisib (NSC816437), ipatasertib (NSC767898), afuresertib (NSC778305), talazoparib (NSC767125), sapanisertib (NSC764658), selumetinib (NSC741078), tovorafenib (DAY101, NSC766906), vemurafenib (NSC761431), ravoxertinib (NSC781343), sotorasib (NSC818433), MRTX1133 (NSC 836407), abemaciclib (NSC 768073), palbociclib (NSC758247), venetoclax (NSC 766270), SY5609 (NSC837396), enzalutamide (NSC755605), and darolutamide (NSC825331), were obtained from the National Cancer Institute (NCI) Developmental Therapeutics Program Chemical Repository. The FDA-approved anticancer drug set is available from the NCI Developmental Therapeutics Program. […] The stock solutions were prepared in dimethyl sulfoxide (DMSO, Sigma-Aldrich, St. Louis, MO, cat. D2650) at 800-fold the tested concentration and stored at -70 degrees C prior to their use. All drugs and investigational agents were tested over a range starting from a high concentration at or near the clinical Cmax and decreasing in half-log increments. If the clinical Cmax for an agent had not been determined, the highest concentration tested was 10 microM.
Cell Culture. All cells were maintained in an incubator at 37 degrees C and 5% CO2 with 95% humidity. The PDC lines were cultured according to standard operating procedures established by the NCI PDMR (https://pdmr.cancer.gov/sops/default.htm). All PDCs were thawed and cultured in Matrigel-coated flasks prepared with a working solution of 1X Ham's F-12 nutrient mix, without supplementation (Invitrogen, Waltham, MA, cat. 11765054), 100 U/mL penicillin-streptomycin (Invitrogen, cat. 15140122), and 2.5% Matrigel (Corning Inc., Corning, NY, cat. 354248) for the first three passages. The 354836-022-R-J1-PDC, 475296-252-R-J1-PDC, and 997726-040-R-J2-PDC lines were cultured in 6A media, which includes advanced DMEM/F-12 (Thermo Fisher Scientific, cat. 12634028), 10 mM HEPES (Thermo Fisher Scientific, cat. 15630080), 1X GlutaMAX supplement (Thermo Fisher Scientific, cat. 35050061), 0.1 mg/mL primocin (InvivoGen, San Diego, CA, cat. ant-pm-2), 10% defined fetal bovine serum, heat inactivated (HyClone Laboratories Inc., Logan, UT, cat. SH30070.03HI), 50% L-WRN conditioned media (ATCC, cat. CRL-3276), 1.25 mM N-Acetyl-L-cysteine (Sigma-Aldrich, cat. A9165), 10 mM nicotinamide (Sigma-Aldrich, cat. N0636), 1X B-27 supplement (Thermo Fisher Scientific, cat. 17504044), 1X N-2 supplement (Thermo Fisher Scientific, cat. 17502048), and 10 microM Y-27632 dihydrochloride (Tocris Bioscience, Bristol, United Kingdom, cat. 1254). The 624824-186-R-J2-PDC line was cultured in 6C/Colon 1B media, which includes all 6A media components plus 50 ng/mL human EGF recombinant protein (Thermo Fisher Scientific, cat. PHG0311). […]
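Also: spheroids exposed to agents for 7 days before read-out.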
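For viability, T/C in this document: luminescence used as surrogate of cell viability.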

IC50 (second compound 0.0316 µM): > 100 nM | IC50 (second compound 0.1 µM): > 100 nM | IC50 (second compound 0.316 µM): > 100 nM | IC50 (second compound 1 µM): > 100 nM | IC50 (second compound 3.16 µM): > 100 nM | IC50 (second compound 10 µM): 21.8 nM
SMILES: Cn1ncnc1[C@H]1c2n[nH]c(=O)c3cc(F)cc(c23)N[C@@H]1c1ccc(F)cc1 + Cc1nc(NC(=O)N2CCCC2C(N)=O)sc1-c1ccnc(C(C)(C)C(F)(F)F)c1
viability, T/C (second compound 0.0316 µM, first compound 0.000316 µM): 85.9% | viability, T/C (second compound 0.0316 µM, first compound 0.001 µM): 84.8% | viability, T/C (second compound 0.0316 µM, first compound 0.00316 µM): 83% | viability, T/C (second compound 0.0316 µM, first compound 0.01 µM): 79.5% | viability, T/C (second compound 0.0316 µM, first compound 0.0316 µM): 109% | viability, T/C (second compound 0.0316 µM, first compound 0.1 µM): 86.2% | viability, T/C (second compound 0.1 µM, first compound 0.000316 µM): 104% | viability, T/C (second compound 0.1 µM, first compound 0.001 µM): 69.8% | viability, T/C (second compound 0.1 µM, first compound 0.00316 µM): 77.9% | viability, T/C (second compound 0.1 µM, first compound 0.01 µM): 92.8% | viability, T/C (second compound 0.1 µM, first compound 0.0316 µM): 82.6% | viability, T/C (second compound 0.1 µM, first compound 0.1 µM): 82.1% | viability, T/C (second compound 0.316 µM, first compound 0.000316 µM): 70.7% | viability, T/C (second compound 0.316 µM, first compound 0.001 µM): 69% | viability, T/C (second compound 0.316 µM, first compound 0.00316 µM): 50.6% | viability, T/C (second compound 0.316 µM, first compound 0.01 µM): 76.6% | viability, T/C (second compound 0.316 µM, first compound 0.0316 µM): 71.3% | viability, T/C (second compound 0.316 µM, first compound 0.1 µM): 67.8% | viability, T/C (second compound 1 µM, first compound 0.000316 µM): 58.9% | viability, T/C (second compound 1 µM, first compound 0.001 µM): 71.8% | viability, T/C (second compound 1 µM, first compound 0.00316 µM): 71.8% | viability, T/C (second compound 1 µM, first compound 0.01 µM): 67% | viability, T/C (second compound 1 µM, first compound 0.0316 µM): 55.1% | viability, T/C (second compound 1 µM, first compound 0.1 µM): 60.3% | viability, T/C (second compound 3.16 µM, first compound 0.000316 µM): 51% | viability, T/C (second compound 3.16 µM, first compound 0.001 µM): 65.9% | viability, T/C (second compound 3.16 µM, first compound 0.00316 µM): 65.5% | viability, T/C (second compound 3.16 µM, first compound 0.01 µM): 68.9% | viability, T/C (second compound 3.16 µM, first compound 0.0316 µM): 62.4% | viability, T/C (second compound 3.16 µM, first compound 0.1 µM): 56% | viability, T/C (second compound 10 µM, first compound 0.000316 µM): 48.2% | viability, T/C (second compound 10 µM, first compound 0.001 µM): 71.1% | viability, T/C (second compound 10 µM, first compound 0.00316 µM): 51.5% | viability, T/C (second compound 10 µM, first compound 0.01 µM): 38.8% | viability, T/C (second compound 10 µM, first compound 0.0316 µM): 50.8% | viability, T/C (second compound 10 µM, first compound 0.1 µM): 51.7%

Source: PubChem BioAssay AID1963962 (Molecular Pharmacology Branch, DTP, NCI, 2024)
